The term inhibition denotes the change of the read-out against control, counted positive when it falls. As usually defined, the pIC50 is the IC50 on a negative log10 scale, so that one unit is a factor of ten.

Results on 25 compounds are retold here after patent US7064120B2, “Tricyclic pyridyl carboxamides and derivatives thereof tocolytic oxytocin receptor antagonists” (Wyeth, priority 2001, dated 2006).

SMILES strings stand for the structures. pIC50: −log10 of the molar value.

The target in one experiment is T1, human vasopressin V1a receptor subtype (Homo sapiens, UniProt P37288).
T1 construct: host or cells: CHO cells, stably transfected (pZeoSV vector for the Thibonnier line)
T1 sequence (P37288 whole entry): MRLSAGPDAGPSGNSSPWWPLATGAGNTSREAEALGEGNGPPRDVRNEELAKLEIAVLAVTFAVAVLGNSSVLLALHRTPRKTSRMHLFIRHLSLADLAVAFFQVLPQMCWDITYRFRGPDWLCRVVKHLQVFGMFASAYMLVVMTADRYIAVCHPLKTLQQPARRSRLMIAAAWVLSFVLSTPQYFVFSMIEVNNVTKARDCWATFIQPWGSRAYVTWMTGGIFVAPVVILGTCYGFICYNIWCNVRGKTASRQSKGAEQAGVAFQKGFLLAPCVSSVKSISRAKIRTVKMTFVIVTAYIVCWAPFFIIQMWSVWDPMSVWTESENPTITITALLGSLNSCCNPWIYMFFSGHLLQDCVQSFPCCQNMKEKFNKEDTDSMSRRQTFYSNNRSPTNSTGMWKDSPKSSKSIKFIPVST
As to the kind of experiment: Vasopressin binding in CHO cell membranes expressing human vasopressin V1a subtype receptors ([3H]Manning ligand radioligand binding). Conditions: 100 nM. In short, it runs like this: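 Radioligand displacement: [3H]Manning ligand, added as 8 nM stock, binds human V1a receptor in CHO-cell membranes (25–50 μg/well), pH 7.4 Tris buffer with protease inhibitors, 60 min room temperature. Bound counts collected by filter harvesting; values are percent inhibition at stated concentration or nanomolar IC50.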
Regarding `COc1cc(C(=O)N2Cc3ccc(C(=O)N4CCN(c5ccccn5)CC4)n3Cc3ccccc32)ccc1-c1ccccc1C` [Example 80, {10-[(2-Methoxy-2′-methyl-[1,1′-biphenyl]-4-yl)carbonyl]-10,11-dihydro-5H-pyrrolo[2,1-c][1,4]benzodiazepin-3-yl}[4-(2-pyridinyl)-1-piperazinyl]methanone], the inhibition at 0.1 µM was determined as 6%.
The same measure, in the same setting: then `COc1cc(-c2ccccc2C)c(Cl)cc1C(=O)N1Cc2ccc(C(=O)N3CCN(c4ccccn4)CC3)n2Cc2ccccc21` [Example 81, {10-[(6-Chloro-3-methoxy-2′-methyl-[1,1′-biphenyl]-4-yl)carbonyl]-10,11-dihydro-5H-pyrrolo[2,1-c][1,4]benzodiazepin-3-yl}[4-(2-pyridinyl)-1-piperazinyl]methanone], with -6%.
Take `COc1cccc(-c2cc(OC)c(C(=O)N3Cc4ccc(C(=O)N5CCN(c6ccccn6)CC5)n4Cc4ccccc43)cc2Cl)c1` [Example 82, {10-[(6-Chloro-3,3′-dimethoxy-[1,1′-biphenyl]-4-yl)carbonyl]-10,11-dihydro-5H-pyrrolo[2,1-c][1,4]benzodiazepin-3-yl}[4-(2-pyridinyl)-1-piperazinyl]methanone]: the inhibition at 0.1 µM was -1%.
On the same count and under the same terms, then `COc1ccccc1-c1ccc(C(=O)N2Cc3ccc(C(=O)N4CCN(c5ccccn5)CC4)n3Cc3ccccc32)cc1OC` [Example 84, {10-[(2,2′-Dimethoxy-[1,1′-biphenyl]-4-yl)carbonyl]-10,11-dihydro-5H-pyrrolo[2,1-c][1,4]benzodiazepin-3-yl}[4-(2-pyridinyl)-1-piperazinyl]methanone], with 3%; and `COc1cccc(-c2ccc(C(=O)N3Cc4ccc(C(=O)N5CCN(c6ccccn6)CC5)n4Cc4ccccc43)cc2OC)c1` [Example 85, {10-[(2,3′-Dimethoxy-[1,1′-biphenyl]-4-yl)carbonyl]-10,11-dihydro-5H-pyrrolo[2,1-c][1,4]benzodiazepin-3-yl}[4-(2-pyridinyl)-1-piperazinyl]methanone], with -5%; and `O=C(c1ccc2n1Cc1ccccc1N(C(=O)c1ccc(-c3cccc4ccccc34)cc1Cl)C2)N1CCN(c2ccccn2)CC1` [Example 86, {10-[2-Chloro-4-(naphthalen-1-yl)benzoyl]-10,11-dihydro-5H-pyrrolo[2,1-c][1,4]benzodiazepin-3-yl}[4-(2-pyridinyl)-1-piperazinyl]methanone], with 1%.
`Cc1cc(C(=O)N2Cc3ccc(C(=O)N4CCN(c5ccccn5)CC4)n3Cc3ccccc32)ccc1-c1ccccc1C(F)(F)F` [Example 87, (10-{[2-Methyl-2′-trifluoromethyl-[1,1′-biphenyl]-4-yl]carbonyl}-10,11-dihydro-5H-pyrrolo[2,1-c][1,4]benzodiazepin-3-yl)[4-(2-pyridinyl)-1-piperazinyl]methanone]: the inhibition at 0.1 µM came out at 1%.
Take `COc1ccccc1-c1ccc(C(=O)N2Cc3ccc(C(=O)NCc4ccncc4)n3Cc3ccccc32)cc1C` [Example 88, 10-[(2′-Methoxy-2-methyl-[1,1′-biphenyl]-4-yl)carbonyl]-N-(4-pyridinylmethyl)-10,11-dihydro-5H-pyrrolo[2,1-c][1,4]benzodiazepine-3-carboxamide]: the inhibition at 0.1 µM was 8%.
Consider `Cc1ccccc1-c1ccc(C(=O)N2Cc3ccc(C(=O)NCc4ccncc4)n3Cc3ccccc32)cc1C` [Example 89, 10-[(2,2′-Dimethyl-[1,1′-biphenyl]-4-yl)carbonyl]-N-(4-pyridinylmethyl)-10,11-dihydro-5H-pyrrolo[2,1-c][1,4]benzodiazepine-3-carboxamide], for which the inhibition at 0.1 µM was 29%.
Regarding `COc1cccc(-c2ccc(C(=O)N3Cc4ccc(C(=O)NCc5ccncc5)n4Cc4ccccc43)cc2C)c1` [Example 90, 10-[(3′-Methoxy-2-methyl-[1,1′-biphenyl]-4-yl)carbonyl]-N-(4-pyridinylmethyl)-10,11-dihydro-5H-pyrrolo[2,1-c][1,4]benzodiazepine-3-carboxamide], the inhibition at 0.1 µM stood at 14%.
`COc1ccccc1-c1ccc(C(=O)N2Cc3ccc(C(=O)NCc4ccncc4)n3Cc3ccccc32)cc1` [Example 91, 10-[(2′-Methoxy-[1,1′-biphenyl]-4-yl)carbonyl]-N-(4-pyridinylmethyl)-10,11-dihydro-5H-pyrrolo[2,1-c][1,4]benzodiazepine-3-carboxamide]: the inhibition at 0.1 µM was 11%.
Regarding `Cc1ccccc1-c1ccc(C(=O)N2Cc3ccc(C(=O)NCc4ccncc4)n3Cc3ccccc32)cc1` [Example 92, 10-[(2′-Methyl-[1,1′-biphenyl]-4-yl)carbonyl]-N-(4-pyridinylmethyl)-10,11-dihydro-5H-pyrrolo[2,1-c][1,4]benzodiazepine-3-carboxamide], the inhibition at 0.1 µM stood at 21%.
On the same count and under the same terms, the result for `COc1cc(C(=O)N2Cc3ccc(C(=O)NCc4ccncc4)n3Cc3ccccc32)ccc1-c1ccccc1C` [Example 93, 10-[(2-Methoxy-2′-methyl-[1,1′-biphenyl]-4-yl)carbonyl]-N-(4-pyridinylmethyl)-10,11-dihydro-5H-pyrrolo[2,1-c][1,4]benzodiazepine-3-carboxamide] reads 50%; that for `COc1cc(-c2ccccc2C)c(Cl)cc1C(=O)N1Cc2ccc(C(=O)NCc3ccncc3)n2Cc2ccccc21` [Example 94, 10-[(6-Chloro-3-methoxy-2′-methyl-[1,1′-biphenyl]-4-yl)carbonyl]-N-(4-pyridinylmethyl)-10,11-dihydro-5H-pyrrolo[2,1-c][1,4]benzodiazepine-3-carboxamide], 0%.
The same measure, in the same setting: the result for `COc1cccc(-c2cc(OC)c(C(=O)N3Cc4ccc(C(=O)NCc5ccncc5)n4Cc4ccccc43)cc2Cl)c1` [Example 95, 10-[(6-Chloro-3,3′-dimethoxy-[1,1′-biphenyl]-4-yl)carbonyl]-N-(4-pyridinylmethyl)-10,11-dihydro-5H-pyrrolo[2,1-c][1,4]benzodiazepine-3-carboxamide] reads 1%; that for `COc1cc(C(=O)N2Cc3ccc(C(=O)NCc4ccncc4)n3Cc3ccccc32)ccc1-c1cccc2ccccc12` [Example 96, 10-[3-Methoxy-4-(naphthalen-1-yl)benzoyl]-N-(4-pyridinylmethyl)-10,11-dihydro-5H-pyrrolo[2,1-c][1,4]benzodiazepine-3-carboxamide], 7%; that for `COc1ccccc1-c1ccc(C(=O)N2Cc3ccc(C(=O)NCc4ccncc4)n3Cc3ccccc32)cc1OC` [Example 97, 10-[(2,2′-Dimethoxy-[1,1′-biphenyl]-4-yl)carbonyl]-N-(4-pyridinylmethyl)-10,11-dihydro-5H-pyrrolo[2,1-c][1,4]benzodiazepine-3-carboxamide], 4%.
Turning to `O=C(NCc1ccncc1)c1ccc2n1Cc1ccccc1N(C(=O)c1ccc(-c3cccc4ccccc34)cc1Cl)C2` [Example 99, 10-[2-Chloro-4-(naphthalen-1-yl)benzoyl]-N-(4-pyridinylmethyl)-10,11-dihydro-5H-pyrrolo[2,1-c][1,4]benzodiazepine-3-carboxamide], the inhibition at 0.1 µM was -7%.
Turning to `Cc1cc(C(=O)N2Cc3ccc(C(=O)NCc4ccncc4)n3Cc3ccccc32)ccc1-c1ccccc1C(F)(F)F` [Example 100, 10-{[2-Methyl-2′-trifluoromethyl-[1,1′-biphenyl]-4-yl]carbonyl}-N-(4-pyridinylmethyl)-10,11-dihydro-5H-pyrrolo[2,1-c][1,4]benzodiazepine-3-carboxamide], the inhibition at 0.1 µM amounted to 10%.
Take `COc1ccccc1-c1ccc(C(=O)N2Cc3ccc(C(=O)N(C)Cc4cccnc4)n3Cc3ccccc32)cc1` [Example 104, 10-[(2′-Methoxy-[1,1′-biphenyl]-4-yl)carbonyl]-N-methyl-N-(3-pyridinylmethyl)-10,11-dihydro-5H-pyrrolo[2,1-c][1,4]benzodiazepine-3-carboxamide]: the inhibition at 0.1 µM was 32%.
As for `Cc1ccccc1-c1ccc(C(=O)N2Cc3ccc(C(=O)N(C)Cc4cccnc4)n3Cc3ccccc32)cc1` [Example 105, N-Methyl-10-[(2′-methyl-[1,1′-biphenyl]-4-yl)carbonyl]-N-(3-pyridinylmethyl)-10,11-dihydro-5H-pyrrolo[2,1-c][1,4]benzodiazepine-3-carboxamide], the inhibition at 0.1 µM came to 0%.

The experiment is the same for the next values; noted with them: value in parentheses.
`COc1ccccc1-c1ccc(C(=O)N2Cc3ccc(C(=O)N(C)Cc4cccnc4)n3Cc3ccccc32)cc1C` [Example 101, 10-[(2′-Methoxy-2-methyl-[1,1′-biphenyl]-4-yl)carbonyl]-N-methyl-N-(3-pyridinylmethyl)-10,11-dihydro-5H-pyrrolo[2,1-c][1,4]benzodiazepine-3-carboxamide]: the pIC50 was 6.45.
As for `COc1cccc(-c2ccc(C(=O)N3Cc4ccc(C(=O)N(C)Cc5cccnc5)n4Cc4ccccc43)cc2C)c1` [Example 102, 10-[(3′-Methoxy-2-methyl-[1,1′-biphenyl]4-yl)carbonyl]-N-methyl-N-(3-pyridinyImethyl)-10,11-dihydro-5H-pyrrolo[2,1-c][1,4]benzodiazepine-3-carboxamide], the pIC50 was 6.56.
For `COc1ccccc1-c1ccc(C(=O)N2Cc3ccc(C(=O)N(C)Cc4cccnc4)n3Cc3ccccc32)cc1OC` [Example 103, 10-[(2,2′-Dimethoxy-[1,1′-biphenyl]-4-yl)carbonyl]-N-methyl-N-(3-pyridinylmethyl)-10,11-dihydro-5H-pyrrolo[2,1-c][1,4]benzodiazepine-3-carboxamide], the negative logarithm of the IC50 (pIC50) is 6.35.
Consider `Cc1cc(C(=O)N2Cc3ccc(C(=O)N(C)Cc4cccnc4)n3Cc3ccccc32)ccc1-c1ccccc1C(F)(F)F` [Example 112, N-Methyl-10-{[2-methyl-2′-trifluoromethyl-[1,1′-biphenyl]-4-yl]carbonyl}-N-(3-pyridinylmethyl)-10,11-dihydro-5H-pyrrolo[2,1-c][1,4]benzodiazepine-3-carboxamide], for which the pIC50 is 5.80.
